Source: patent publication US10000555B2, “Monomethylvaline compounds having phenylalanine side-chain modification at the C-terminus” (Seattle Genetics, Inc., priority 2005, dated 2018)

Legend:
Assay type in all cases: cell-based
U251 = assay: In vitro cytotoxicity of h1F6-MC-val-cit-PAB-MMAZ conjugates on CD70+ cell line U251; details: U251 glioblastoma, approximately 4 drugs per antibody
Description: (§1) The cytotoxic activity of MMAZ and antibody-drug conjugates is evaluated on the CD70+ positive cell lines, for example, Caki-1, renal cell carcinoma; L428, Hodgkin's disease; U251, glioblastoma. To evaluate the cytotoxicity of compounds, cells can be seeded at approximately 5-10,000 per well in 150 μl of culture medium, then treated with graded doses of compounds in quadruplicates at the initiation of assay. Cytotoxicity assays are usually carried out for 96 hours after addition of test compounds. Fifty μl of resazurin dye may be added to each well during the last 4 to 6 hours of the incubation to assess viable cells at the end of culture. Dye reduction can be determined by fluorescence spectrometry using the excitation and emission wavelengths of 535 nm and 590 nm, respectively. For analysis, the extent of resazurin reduction by the treated cells can be compared to that of the untreated control cells.
(§2) To evaluate the cytotoxicity of conjugates, cells are seeded at approximately 5-10,000 per well in 150 μl of culture medium and then treated with graded doses of conjugates in quadruplicates at the initiation of assay. Cytotoxicity assays are carried out for 96 hours after addition of test compounds. Fifty μl of the resazurin dye is added to each well during the last 4 to 6 hours of the incubation to assess viable cells at the end of culture. Dye reduction is determined by fluorescence spectrometry using the excitation and emission wavelengths of 535 nm and 590 nm, respectively. For analysis, the extent of resazurin reduction by the treated cells is compared to that of the untreated control cells.

Caki-1 = assay: In vitro cytotoxicity of h1F6-MC-val-cit-PAB-MMAZ conjugates on CD70+ cell line Caki-1; details: Caki-1 renal cell carcinoma, approximately 4 drugs per antibody
Description: as §1, §2

L428 = assay: In vitro cytotoxicity of h1F6-MC-val-cit-PAB-MMAZ conjugates on CD70+ cell line L428; details: for IC50 (ng/mL) of h1F6-MC-val-cit-PAB-MMAZ conjugates on CD70+ cell lines, L428: L428 Hodgkin's disease, approximately 4 drugs per antibody
Description: as §1, §2

| Substance | IC50 (ng/mL) of h1F6-MC-val-cit-PAB-MMAZ conjugates on CD70+ cell lines, U251 (U251) | IC50 (ng/mL) of h1F6-MC-val-cit-PAB-MMAZ conjugates on CD70+ cell lines, Caki-1 (Caki-1) | Maximum inhibition, L428 (L428; @ 141 ng/ml) | IC50 (ng/mL) of h1F6-MC-val-cit-PAB-MMAZ conjugates on CD70+ cell lines, L428 (L428) [ng/mL] | Maximum inhibition, L428 (L428; @ 100 ng/ml) | Maximum inhibition, L428 (L428; @ 1000 ng/ml) |
| --- | --- | --- | --- | --- | --- | --- |
| Maleimidocaproyl-Val-Cit-PAB-MeVal-Val-Dil-Dap-Glu(OtBu)-OH [SP3-l] | 43 ng/mL | 51 ng/mL | Maximum inhibition = 12% @ 141 ng/ml |  |  |  |
| Maleimidocaproyl-Val-Cit-PAB-MeVal-Val-Dil-Dap-2-Chloro-Phe-OH [SP3-a] | 8 ng/mL | 4.4 ng/mL |  | 8 |  |  |
| Maleimidocaproyl-Val-Cit-PAB-MeVal-Val-Dil-Dap-Trp(Boc)-OH [SP3-k] | 7.5 ng/mL | 6 ng/mL |  | 11 |  |  |
| Maleimidocaproyl-Val-Cit-PAB-MeVal-Val-Dil-Dap-p-Amino-Phe-OH [SP3-e] | No effect | No effect |  |  | Maximum inhibition = 10% @ 100 ng/ml |  |
| Maleimidocaproyl-Val-Cit-PAB-MeVal-Val-Dil-Dap-Tic-OH [SP3-c] | 20 ng/mL | 28 ng/mL |  |  |  | Maximum inhibition = 12% @ 1000 ng/ml |
| Maleimidocaproyl-Val-Cit-PAB-MeVal-Val-Dil-Dap-3-(3-pyridyl)-L-Ala-OH [SP3-h] | 16 ng/mL | 16 ng/mL |  | 12 |  |  |
| Maleimidocaproyl-Val-Cit-PAB-MeVal-Val-Dil-Dap-Met-OH [SP3-j] | 23 ng/mL | 18 ng/mL |  | 43 |  |  |
| Maleimidocaproyl-Val-Cit-PAB-MeVal-Val-Dil-Dap-L-β-homophe-OH [SP3-d] | 11 ng/mL | 9 ng/mL |  | 33 |  |  |
| Maleimidocaproyl-Val-Cit-PAS-MeVal-Val-Dil-Dap-Me-Phe-OH [SP3-b] | 8 ng/mL | 6 ng/mL |  | 6 |  |  |
